Results from ChEMBL document CHEMBL1667744, “Structure--activity relationship studies of 1-(4-chloro-2,5-dimethoxyphenyl)-3-(3-propoxypropyl)thiourea, a non-nucleoside reverse transcriptase inhibitor of human immunodeficiency virus type-1” (Eur J Med Chem, 2011).

System: Human immunodeficiency virus 1
Assay: Antiviral activity against HIV1 pseudovirus infected in human B cell assessed as inhibition of infection at 5 uM after 48 to 72 hrs by flow cytometry
Format: functional
Conditions: Human immunodeficiency virus 1, B

Row | SMILES | inhibition at 5 µM
1 | COc1cc(N=C(S)NCCCO)c(OC)cc1Cl | 92%
2 | CCCOCCCNC(=S)Nc1cc(OCC)c(Cl)cc1OCC | 58%
3 | CCCOCCCNC(=S)Nc1cc(OCCC)c(Cl)cc1OCCC | 107%
4 | CCCOCCCNC(=S)Nc1cc(OC)c([N+](=O)[O-])cc1OC | 107%
5 | CCCOCCCNC(=O)Nc1cc(OC)c(Cl)cc1OC | 47%
6 | CCCCCCCNC(=O)Nc1cc(OC)c(Cl)cc1OC | 89%
7 | CCCOCCNC(=S)Nc1cc(OC)c(Cl)cc1OC | 46%
8 | COCCCNC(=S)Nc1cc(OC)c(Cl)cc1OC | 105%
9 | CCOCCCNC(=S)Nc1cc(OC)c(Cl)cc1OC | 66%
10 | CCCCCCNC(=S)Nc1cc(OC)c(Cl)cc1OC | 87%
11 | CCCCCCCNC(=S)Nc1cc(OC)c(Cl)cc1OC | 87%
12 | CCCCCCNC(=S)Nc1cc(OCC)c(Cl)cc1OCC | 107%
13 | CCCCCCCNC(=S)Nc1cc(OCC)c(Cl)cc1OCC | 69%
14 | CCCSCCCNC(=S)Nc1cc(OC)c(Cl)cc1OC | 24%
15 | CCC[S+]([O-])CCCNC(=S)Nc1cc(OC)c(Cl)cc1OC (stereo not drawn) | 91%
16 | CCCNCCCNC(=S)Nc1cc(OC)c(Cl)cc1OC | 83%
17 | CCCC(=O)OCCCN/C(=N/c1cc(OC)c(Cl)cc1OC)SC(=O)CCC | 87%

Row | SMILES | inhibition at 5 µM
18 | CCCC(=O)OCCCNC(=S)Nc1cc(OC)c(Cl)cc1OC | 65%
19 | CCC(=O)OCCCNC(=S)Nc1cc(OC)c(Cl)cc1OC | 86%
20 | COc1cc(NC(=S)NCCCOC(C)=O)c(OC)cc1Cl | 123%
21 | CCCCOC(=O)CCNC(=S)Nc1cc(OC)c(Cl)cc1OC | 43%
22 | CCCOC(=O)CCNC(=S)Nc1cc(OC)c(Cl)cc1OC | 66%
23 | COC(=O)CCNC(=S)Nc1cc(OC)c(Cl)cc1OC | 56%
24 | CCOC(=O)CCNC(=S)Nc1cc(OC)c(Cl)cc1OC | 66%
25 | COc1cc(NC(=S)NCCC(=O)O)c(OC)cc1Cl | 91%
26 | COC(=O)CCCNC(=S)Nc1cc(OC)c(Cl)cc1OC | 73%
27 | CCOC(=O)CCCNC(=S)Nc1cc(OC)c(Cl)cc1OC | 24%
28 | CCCOC(=O)CCCNC(=S)Nc1cc(OC)c(Cl)cc1OC | 17%
29 | CCCCOC(=O)CCCNC(=S)Nc1cc(OC)c(Cl)cc1OC | 29%
30 | CCCNC(=O)CCCNC(=S)Nc1cc(OC)c(Cl)cc1OC | 69%
31 | CCCSC(=O)CCCNC(=S)Nc1cc(OC)c(Cl)cc1OC | 79%
32 | COC(=O)CCCNC(=O)Nc1cc(OC)c(Cl)cc1OC | 87%
33 | CCOC(=O)CCCNC(=O)Nc1cc(OC)c(Cl)cc1OC | 65%
34 | COc1cc(NC(=S)N2CCCC2=O)c(OC)cc1Cl | 104%

System: not listed separately
Assay: Cytotoxicity against HIV1 pseudovirus infected in human B cells
Format: cell-based
Conditions: b cell

Row | SMILES | Activity
35 | CCCSCCCNC(=O)Nc1cc(OC)c(Cl)cc1OC | Toxic
36 | CCCN(CCCNC(=S)Nc1cc(OC)c(Cl)cc1OC)C(=O)OC(C)(C)C | Toxic

System: Human immunodeficiency virus 1
Assay: Antiviral activity against HIV1 pseudovirus infected in human B cell assessed as inhibition of infection
Format: functional, organism-based
Conditions: Human immunodeficiency virus 1, B

Row | SMILES | IC50
37 | CCCOC(=O)CCCNC(=S)Nc1cc(OC)c(Cl)cc1OC | 1.1 nM
38 | CCCOCCCNC(=S)Nc1cc(OC)c(Cl)cc1OC | 168 nM
